Data as given in patent EP4480497A1, “BIO-CONJUGATES FOR ONCOLOGY” (priority 2023, dated 2024).

Columns and labels:
[1] = system: triple negative breast tumour cells MDA-MB231; assay: ATPlite luminescence ATP assay in MDA-MB231 cells (Example 5); type: cell-based; conditions: MDA-MB231, ATP assay after a 72h treatment, Figure 5A
Protocol: Dose-response curves in triple negative breast tumour cells MDA-MB231 and IC50 values obtained from an ATP assay after a 72h treatment with CROMOC36, CROMOC36-DM1 and the unconjugated DM1 molecule is shown in Figure 5A. The x-axis indicates the drug concentration (nM) in log scale, and the y-axis indicates the % of cell viability as measured by the ATP levels in the treated cells relative to the DMSO control.
The cytotoxic effect of CROMOC-DM1 conjugates was evaluated on the MDA-MB-231 cell line by means of the ATPlite Luminescence ATP Detection Assay System. The cytotoxic effect of the different CROMOC conjugated with DM-1 was compared to that of non-conjugated CROMOCs. Cells treated only with the medium were used as control. Briefly, the cells were seeded in black 96-well plates at a density of 2000 cells/well. After 24 h, cells were treated with increasing concentrations of the conjugates (range 0.02 - 500 nM in CROMOC, n=11) for 72 hours. To quantify ATP production, cells were treated following the manufacturer's instructions, and luminescence was quantified by means of a Victor Nivo multi-plate reader (Perkin Elmer, Waltham, MA, USA). The percentage of cell viability was determined as (luminescencetreated cells/luminescencecontrol cells) × 100. IC50 values were calculated using GraphPad Prism 9.0 (San Diego, CA, USA) by a nonlinear regression model.

[2] = system: tumour xenograft LIXF HEP3B (hepatocellular carcinoma); assay: Orthotopic hepatocellular carcinoma xenograft, anti-tumour efficacy (Example 7); type: in vivo, NMRI nude mice; conditions: seven to eight mice per group, each substance at its one regimen
Protocol: The experiment comprised a reference group (Group 1) dosed with phosphate buffered saline and four treatment groups (Groups 2 to 5). […] The daily dose was split, the daily dosing interval was 6 hours. Mice were either sacrificed individually when their general condition required sacrifice or at termination of the experiment. The group size at the start of dosing was seven to eight mice per group, bearing orthotopic growing LIXF HEP3B.

[3] = Tolerability (mortality, body weight, skin) in the LIXF HEP3B xenograft study (Example 7); type: in vivo, NMRI nude mice
Protocol: The experiment comprised a reference group (Group 1) dosed with phosphate buffered saline and four treatment groups (Groups 2 to 5). […] CROMOC62 was given subcutaneously every second week for 4 weeks at 32 (induction dosing on day 0) and 16 (day 14 and 28) mg/kg/d. Sorafenib was applied daily for 6 days in mono and combined therapy and additional 6 days (9-14) exclusively in monotherapy per oral at 200 mg/kg/d. The daily dose was split, the daily dosing interval was 6 hours. Mice were either sacrificed individually when their general condition required sacrifice or at termination of the experiment. The group size at the start of dosing was seven to eight mice per group, bearing orthotopic growing LIXF HEP3B. […] CROMOC62 was given at one dose levels (32 mg/kg on day 0 and 16 mg/kg/d on days 14 and 28) in monotherapy or in combination with sorafenib which was given at one dose level (200 mg/kg/d on days 0-5). The effect of sorafenib monotherapy was also assessed (200 mg/kg/d on day 0-5 and 9-14).

Row | Compound | IC50 [1] | complete remissions (number of mice) [2] | partial remissions (number of mice) [2] | mortalities ([3]; LIXF HEP3B study, seven to eight mice per group, each substance at its one regimen) | maximum body weight loss ([3]; on day 16, sorafenib 12x200 mg/kg/d per oral)
1 | COc1cc2cc(c1Cl)N(C)C(=O)C[C@H](OC(=O)[C@H](C)N(C)C(=O)CCS)[C@]1(C)O[C@H]1[C@H](C)[C@@H]1C[C@@](O)(NC(=O)O1)[C@H](OC)/C=C/C=C(\C)C2 [DM1, DM1 Maytansinoid] | ~0.95 nM |  |  |  | 
2 | CNC(=O)c1cc(Oc2ccc(NC(=O)Nc3ccc(Cl)c(C(F)(F)F)c3)cc2)ccn1 [sorafenib] |  | five | two | One out of eight | 2.5%
